Patent publication US10730889B2, “Amido spirocyclic amide and sulfonamide derivatives” (Forma TM, LLC, priority 2012, dated 2020)

System: A2780 cells
Assay: In-vitro cell proliferation assay (SRB, 72 hours)
Format: cell-based
Details: Homo sapiens, A2780, 72 h, A2780 cells, 72 hours, SRB; read-out: Cell Proliferation (IC50)

SMILES	IC50
CC(=O)Nc1cnccc1C(=O)N1CCC2(CC1)CC2CNC(=O)c1cc2ccncc2o1 (centres unmarked) [Example 265, N-[[6-(3-acetamidopyridine-4-carbonyl)-6-azaspiro[2.5]octan-2-yl]methyl]furo[2,3-c]pyridine-2-carboxamide]	2000 nM
CC(C)(C)OCC(=O)N1CCC2(CC1)CC2CNC(=O)c1cc2ccncc2o1 (centres unmarked) [Example 38, N-[[6-(2-tert-butoxyacetyl)-6-azaspiro[2.5]octan-2-yl]methyl]furo[2,3-c]pyridine-2-carboxamide]	18.8 nM
CN1CCN(CC(=O)N2CCC3(CC2)CC3CNC(=O)c2cc3ccncc3o2)CC1 (centres unmarked) [Example 30, N-[[6-[2-(4-methylpiperazin-1-yl)acetyl]-6-azaspiro[2.5]octan-2-yl]methyl]furo[2,3-c]pyridine-2-carboxamide]	614 nM
Cn1cc(-c2ccno2)c(C(=O)N2CCC3(CC2)CC3CNC(=O)c2cc3cnccc3[nH]2)n1 (centres unmarked) [Example 369, N-[[6-(4-isoxazol-5-yl-1-methyl-pyrazole-3-carbonyl)-6-azaspiro[2.5]octan-2-yl]methyl]-1H-pyrrolo[3,2-c]pyridine-2-carboxamide]	93.3 nM
Cc1cc(C(=O)N2CCC3(CC2)CC3CNC(=O)c2cc3ccncc3o2)nn1C (centres unmarked) [Example 115, N-[[6-(1,5-dimethylpyrazole-3-carbonyl)-6-azaspiro[2.5]octan-2-yl]methyl]furo[2,3-c]pyridine-2-carboxamide]	37.6 nM
O=C(NCC1CC12CCN(C(=O)N1CCOCC1)CC2)N1Cc2ccncc2C1 (centres unmarked) [Example 395, N-[[6-(morpholine-4-carbonyl)-6-azaspiro[2.5]octan-2-yl]methyl]-1,3-dihydropyrrolo[3,4-c]pyridine-2-carboxamide]	24.3 nM
O=CNCC(=O)N1CCC2(CC1)CC2CNC(=O)c1cc2ccncc2o1 (centres unmarked) [Example 62, N-[[6-(2-formamidoacetyl)-6-azaspiro[2.5]octan-2-yl]methyl]furo[2,3-c]pyridine-2-carboxamide]	2000 nM
Cc1nn(C(C)(C)C)c(C)c1C(=O)N1CCC2(CC1)CC2CNC(=O)c1cc2ccncc2o1 (centres unmarked) [Example 294, N-[[6-(1-tert-butyl-3,5-dimethyl-pyrazole-4-carbonyl)-6-azaspiro[2.5]octan-2-yl]methyl]furo[2,3-c]pyridine-2-carboxamide]	12.1 nM
N#Cc1ccc(C(=O)N2CCC3(CC2)CC3CNC(=O)c2cc3ccncc3o2)cn1 (centres unmarked) [Example 127, N-[[6-(6-cyanopyridine-3-carbonyl)-6-azaspiro[2.5]octan-2-yl]methyl]furo[2,3-c]pyridine-2-carboxamide]	2000 nM
Cc1nc(C(=O)N2CCC3(CC2)CC3CNC(=O)c2cc3ccncc3o2)c(C)o1 (centres unmarked) [Example 334, N-[[6-(2,5-dimethyloxazole-4-carbonyl)-6-azaspiro[2.5]octan-2-yl]methyl]furo[2,3-c]pyridine-2-carboxamide]	56.5 nM
O=C(NCC1CC12CCN(C(=O)c1ccc(Cn3cncn3)cc1)CC2)c1cc2ccncc2o1 (centres unmarked) [Example 251, N-[[6-[4-(1,2,4-triazol-1-ylmethyl)benzoyl]-6-azaspiro[2.5]octan-2-yl]methyl]furo[2,3-c]pyridine-2-carboxamide]	215 nM
O=C(NCC1CC12CCN(S(=O)(=O)Cc1ccccc1)CC2)N1Cc2ccncc2C1 (centres unmarked) [Example 211, N-[(6-benzylsulfonyl-6-azaspiro[2.5]octan-2-yl)methyl]-1,3-dihydropyrrolo[3,4-c]pyridine-2-carboxamide]	131 nM
NC(=O)Nc1ccc(C(=O)N2CCC3(CC2)CC3CNC(=O)c2cc3ccncc3o2)cc1 (centres unmarked) [Example 94, N-[[6-(4-ureidobenzoyl)-6-azaspiro[2.5]octan-2-yl]methyl]furo[2,3-c]pyridine-2-carboxamide]	437 nM
CN1CCC(CC(=O)N2CCC3(CC2)CC3CNC(=O)c2cc3ccncc3o2)CC1 (centres unmarked) [Example 149, N-[(6-[2-(1-methyl-4-piperidyl)acetyl]-6-azaspiro[2.5]octan-2-yl]methyl]furo[2,3-c]pyridine-2-carboxamide]	496 nM
O=C(NCC1CC12CCN(C(=O)Nc1ccccc1)CC2)N1Cc2ccncc2C1 (centres unmarked) [Example 208, N-[[6-(phenylcarbamoyl)-6-azaspiro[2.5]octan-2-yl]methyl]-1,3-dihydropyrrolo[3,4-c]pyridine-2-carboxamide]	26.1 nM
Cc1nn(C)cc1-c1cc(C(=O)N2CCC3(CC2)CC3CNC(=O)c2cc3ccncc3o2)no1 (centres unmarked) [Example 305, N-[[6-[5-(1,3-dimethylpyrazol-4-yl)isoxazole-3-carbonyl]-6-azaspiro[2.5]octan-2-yl]methyl]furo[2,3-c]pyridine-2-carboxamide]	61.2 nM
N#Cc1ccccc1CC(=O)N1CCC2(CC1)CC2CNC(=O)c1cc2ccncc2o1 (centres unmarked) [Example 152, N-[[6-[2-(2-cyanophenyl)acetyl]-6-azaspiro[2.5]octan-2-yl]methyl]furo[2,3-c]pyridine-2-carboxamide]	262 nM
CC(=O)N(C)CCC(=O)N1CCC2(CC1)CC2CNC(=O)c1cc2ccncc2o1 (centres unmarked) [Example 155, N-[[6-[3-[acetyl(methyl]amino]propanoyl]-6-azaspiro[2.5]octan-2-yl]methyl]furo[2,3-c]pyridine-2-carboxamide]	2000 nM
O=C(NCC1CC12CCN(C(=O)c1ccccn1)CC2)c1cc2ccncc2o1 (centres unmarked) [Example 98, N-[[6-(pyridine-2-carbonyl)-6-azaspiro[2.5]octan-2-yl]methyl]furo[2,3-c]pyridine-2-carboxamide]	2000 nM
N#Cc1cccc(CC(=O)N2CCC3(CC2)CC3CNC(=O)c2cc3ccncc3o2)c1 (centres unmarked) [Example 31, N-[[6-[2-(3-cyanophenyl)acetyl]-6-azaspiro[2.5]octan-2-yl]methyl]furo[2,3-c]pyridine-2-carboxamide]	12.1 nM
O=C(NCC1CC12CCN(C(=O)NCc1ccccc1Cl)CC2)c1cc2ccncc2o1 (centres unmarked) [Example 171, N-[[6-[(2-chlorophenyl)methylcarbamoyl]-6-azaspiro[2.5]octan-2-yl]methyl]furo[2,3-c]pyridine-2-carboxamide]	2000 nM
O=C(Cc1cc(F)cc(F)c1)N1CCC2(CC1)CC2CNC(=O)N1Cc2ccncc2C1 (centres unmarked) [Example 201, N-[[6-[2-(3,5-difluorophenyl)acetyl]-6-azaspiro[2.5]octan-2-yl]methyl]-1,3-dihydropyrrolo[3,4-c]pyridine-2-carboxamide]	27.9 nM

Continued by falling IC50, values first:

IC50	SMILES
2000 nM	O=C(NCC1CC12CCN(C(=O)c1cocn1)CC2)c1cc2ccncc2o1 (centres unmarked) [Example 99, N-[[6-(oxazole-4-carbonyl)-6-azaspiro[2.5]octan-2-yl]methyl]furo[2,3-c]pyridine-2-carboxamide]
2000 nM	O=C(NCC1CC12CCN(C(=O)NCc1ccccc1F)CC2)c1cc2ccncc2o1 (centres unmarked) [Example 161, N-[[6-[(2-fluorophenyl)methylcarbamoyl]-6-azaspiro[2.5]octan-2-yl]methyl]furo[2,3-c]pyridine-2-carboxamide]
2000 nM	CC(C)(C)OC(=O)N1CCC2(CC1)CC(CNC(=O)c1ccc3nccn3c1)C2 [Example 21, tert-butyl 2-((imidazo[1,2-a]pyridine-6-carboxamido)methyl]-7-azaspiro[3.5]nonane-7-carboxylate]
752 nM	Cc1cc(C(=O)N2CCC3(CC2)CC3CNC(=O)c2cc3ccncc3o2)no1 (centres unmarked) [Example 117, N-[[6-(5-methylisoxazole-3-carbonyl)-6-azaspiro[2.5]octan-2-yl]methyl]furo[2,3-c]pyridine-2-carboxamide]
516 nM	Cc1cccnc1C(=O)N1CCC2(CC1)CC2CNC(=O)c1cc2ccncc2o1 (centres unmarked) [Example 231, N-[[6-(3-methylpyridine-2-carbonyl)-6-azaspiro[2.5]octan-2-yl]methyl]furo[2,3-c]pyridine-2-carboxamide]
221 nM	Cc1noc(C)c1C(=O)N1CCC2(CC1)CC2CNC(=O)c1cc2ccncc2o1 (centres unmarked) [Example 125, N-[[6-(3,5-dimethylisoxazole-4-carbonyl)-6-azaspiro[2.5]octan-2-yl]methyl]furo[2,3-c]pyridine-2-carboxamide]
218 nM	CC1(CC(=O)N2CCC3(CC2)CC3CNC(=O)c2cc3ccncc3o2)COC1 (centres unmarked) [Example 195, N-[[6-[2-(3-methyloxetan-3-yl)acetyl]-6-azaspiro[2.5]octan-2-yl]methyl]furo[2,3-c]pyridine-2-carboxamide]
104 nM	Cc1ccc2nc(C(=O)N3CCC4(CC3)CC4CNC(=O)c3cc4ccncc4o3)cn2c1 (centres unmarked) [Example 315, N-[[6-(6-methylimidazo[1,2-a]pyridine-2-carbonyl)-6-azaspiro[2.5]octan-2-yl]methyl]furo[2,3-c]pyridine-2-carboxamide]
37.3 nM	O=C(NCC1CC12CCN(C(=O)c1ccnc(N3CCOCC3)c1)CC2)c1cc2ccncc2o1 (centres unmarked) [Example 129, N-[[6-(2-morpholinopyridine-4-carbonyl)-6-azaspiro[2.5]octan-2-yl]methyl]furo[2,3-c]pyridine-2-carboxamide]
29.2 nM	Cc1nc(C)c(C(=O)N2CCC3(CC2)CC3CNC(=O)c2cc3ccncc3o2)o1 (centres unmarked) [Example 128, N-[[6-(2,4-dimethyloxazole-5-carbonyl)-6-azaspiro[2.5]octan-2-yl]methyl]furo[2,3-c]pyridine-2-carboxamide]
12.6 nM	O=C(Cc1ccccc1)N1CCC2(CC1)CC2CNC(=O)N1Cc2ccncc2C1 (centres unmarked) [Example 47, N-[[6-(2-phenylacetyl)-6-azaspiro[2.5]octan-2-yl]methyl]-1,3-dihydropyrrolo[3,4-c]pyridine-2-carboxamide]
10.8 nM	Cn1nc(C(C)(C)C)cc1C(=O)N1CCC2(CC1)CC2CNC(=O)c1cc2ccncc2o1 (centres unmarked) [Example 296, N-[[6-(5-tert-butyl-2-methyl-pyrazole-3-carbonyl)-6-azaspiro[2.5]octan-2-yl]methyl]furo[2,3-c]pyridine-2-carboxamide]
7.07 nM	Cn1cc(-c2ccno2)c(C(=O)N2CCC3(CC2)CC3CNC(=O)N2Cc3ccncc3C2)n1 (centres unmarked) [Example 354, N-[[6-(4-isoxazol-5-yl-1-methyl-pyrazole-3-carbonyl)-6-azaspiro[2.5]octan-2-yl]methyl]-1,3-dihydropyrrolo[3,4-c]pyridine-2-carboxamide]
